According to the NIST ThermoML archive (doi:10.1021/je100896n):
± gives the expanded uncertainty stated by the source.

Conditions: Fluid (supercritical or subcritical phases), Pulse-echo method

Structure (SMILES): F/C=C/C(F)(F)F [trans-1,3,3,3-tetrafluoropropene]
- speed of sound (259.98 K, 1980 kPa): 715.11 ± 1.4 m/s
- speed of sound (259.98 K, 3989 kPa): 728.84 ± 1.4 m/s
- speed of sound (260 K, 6021 kPa): 742.08 ± 1.4 m/s
- speed of sound (260 K, 8007 kPa): 754.65 ± 1.4 m/s
- speed of sound (260.01 K, 10070 kPa): 767.16 ± 1.4 m/s
- speed of sound (285 K, 1956 kPa): 606.38 ± 1.5 m/s
- speed of sound (285 K, 4021 kPa): 624.26 ± 1.4 m/s
- speed of sound (285 K, 6056 kPa): 640.72 ± 1.4 m/s
- speed of sound (285 K, 8005 kPa): 655.64 ± 1.4 m/s
- speed of sound (285 K, 9989 kPa): 670.06 ± 1.4 m/s
- speed of sound (310 K, 2063 kPa): 497.64 ± 1.7 m/s
- speed of sound (310 K, 3947 kPa): 519.14 ± 1.6 m/s
- speed of sound (310 K, 10112 kPa): 578.79 ± 1.5 m/s
- speed of sound (310.01 K, 6041 kPa): 540.98 ± 1.5 m/s
- speed of sound (310.01 K, 8005 kPa): 559.88 ± 1.5 m/s
- speed of sound (335 K, 7985 kPa): 465.6 ± 1.6 m/s
- speed of sound (335 K, 10020 kPa): 488.5 ± 1.6 m/s
- speed of sound (335.01 K, 2007 kPa): 379.56 ± 2 m/s
- speed of sound (335.01 K, 4027 kPa): 413.08 ± 1.9 m/s
- speed of sound (335.01 K, 5978 kPa): 440.56 ± 1.7 m/s
- speed of sound (360 K, 6047 kPa): 340.1 ± 2.2 m/s
- speed of sound (360.02 K, 3998 kPa): 296.31 ± 2.4 m/s
- speed of sound (360.03 K, 8052 kPa): 373.95 ± 1.9 m/s
- speed of sound (360.03 K, 10036 kPa): 402.5 ± 1.8 m/s

Structure (SMILES): C=C(F)C(F)(F)F [2,3,3,3-tetrafluoro-1-propene]
- speed of sound (259.99 K, 4968 kPa): 655.69 ± 1.4 m/s
- speed of sound (260 K, 1989 kPa): 632.05 ± 1.4 m/s
- speed of sound (260 K, 3044 kPa): 640.57 ± 1.4 m/s
- speed of sound (260 K, 4057 kPa): 648.57 ± 1.4 m/s
- speed of sound (260 K, 5993 kPa): 663.37 ± 1.4 m/s
- speed of sound (285 K, 4006 kPa): 546.27 ± 1.5 m/s
- speed of sound (285 K, 5983 kPa): 565.09 ± 1.5 m/s
- speed of sound (285.01 K, 2033 kPa): 525.9 ± 1.6 m/s
- speed of sound (285.01 K, 3011 kPa): 536.18 ± 1.5 m/s
- speed of sound (285.01 K, 5090 kPa): 556.71 ± 1.5 m/s
- speed of sound (310 K, 5016 kPa): 456.81 ± 1.7 m/s
- speed of sound (310 K, 6057 kPa): 469.1 ± 1.6 m/s
- speed of sound (310.01 K, 2013 kPa): 415.62 ± 2.2 m/s
- speed of sound (310.01 K, 3042 kPa): 430.67 ± 1.8 m/s
- speed of sound (310.01 K, 4019 kPa): 444 ± 1.7 m/s
- speed of sound (334.98 K, 5937 kPa): 371.38 ± 1.9 m/s
- speed of sound (335 K, 2073 kPa): 293.74 ± 2.6 m/s
- speed of sound (335 K, 3039 kPa): 317.18 ± 2.5 m/s
- speed of sound (335 K, 3985 kPa): 336.92 ± 2.2 m/s
- speed of sound (335 K, 5008 kPa): 355.82 ± 2.1 m/s
- speed of sound (359.94 K, 6062 kPa): 275.99 ± 2.8 m/s
- speed of sound (359.96 K, 4997 kPa): 248.55 ± 2.8 m/s
